Results on 2 compounds are retold here after patent US8309056B2, “Method for determination of oxidative stress” (Keio University, priority 2006, dated 2012).

Test [1] concerns glutathione biosynthesis pathway in the liver. Kind of test: Metabolites in liver of agent-administered mice vs control mice, measured by CE-TOFMS. The test is classed as in vivo. The method, then: Male mice fasted overnight were anesthetized by intraperitoneal injection of pentobarbital sodium (60 mg per Kg body weight). […] The liver (about 300 mg) harvested from mice was immediately plunged into 1 ml of methanol containing internal standards and homogenized to inactivate enzymes and stop increase in metabolism Then, 500 μl of pure water was added and 300 μl of the solution was collected. 200 μl of chloroform was added to the solution, which was then thoroughly mixed. The solution was centrifuged at 15000 rpm at 4° C. for 15 minutes. After left standing, the separated 300 μl-water-methanol phase was centrifugally filtered through an ultrafiltration filter (5 kDa cutoff) to remove proteins. The filtrate was lyophilized and 50 μl of […]® ultrapure water was added thereto prior to CE-MS (CE-TOFMS) analysis. Metabolites having a mass of 1000 or less were comprehensively measured using CE-TOFMS under measuring conditions for cationic metabolites and anionic metabolites. As a capillary, a fused silica capillary having an inner diameter of 50 μm, an outer diameter of 350 μm, and a total length of 100 cm was used. As a buffer, 1 M formic acid (pH is about 1.8) was used. Measurement was performed with an applied voltage of +30 kV and a capillary temperature of 20° C. A sample was injected at 50 mbar for 3 seconds using the pressure method. In TOFMS, the positive ion mode was employed and the ionization, fragmentor, skimmer, and Oct RFV voltages were set at 4 kV, 75 V, 50 V, and 125 V, respectively. Nitrogen was used as a drying gas, which was set at a temperature of 300° C. and a pressure of 10 psig. Methanol solution (50%) was used as a sheath liquid. To this solution, reserpine (m/z 609.2807) was added at 0.5 μM for mass calibration and the solution was delivered at 10μ/min. All the obtained data were automatically calibrated using the mass of reserpine (m/z 609.2807) and methanol adduct ion (m/z 83.0703). As a capillary, SMILE(+) capillary having an inner diameter of 50 μm, an outer diameter of 350 μm, and a total length of 100 cm was used. As a buffer, 50 mM ammonium acetate (pH 8.5) was used. Measurement was performed with an applied voltage of -30 kV and a capillary temperature of 20° C. A sample was injected at 50 mbar for 30 seconds using the pressure method. In TOFMS, the negative ion mode was employed and the ionization, fragmentor, skimmer, and Oct RFV voltage were set at 3.5 kV, 100 V, 50 V, and 200 V, respectively. Nitrogen was used as a drying gas, which was set at a temperature of 300° C. and a pressure of 10 psig. Ammonium acetate (5 mM) in 50% methanol solution was used as a sheath liquid. To this solution, 20 μM PIPES and 1 μM reserpine (m/z 609.2807) was added for mass calibration and was delivered at 10μ/min. All the obtained data were automatically calibrated using the mass of reserpine (m/z 609.2807), monovalent PIPES (m/z 301.0534), and divalent PIPES (m/z 150.0230). […] The extracts were comprehensively and quantitatively analyzed with a capillary electrophoresis-mass spectrometer (CE-MS) or the like. […] Ophthalmic acid preparation was obtained and compared with the unknown substance.

The test system of the next test is serum metabolites. Kind of test: Metabolites in serum of AAP-administered mice vs control mice, measured by CE-TOFMS. The test is classed as in vivo. The method, then: Male mice fasted overnight were anesthetized by intraperitoneal injection of pentobarbital sodium (60 mg per Kg body weight). […] Metabolites having a mass of 1000 or less were comprehensively measured using CE-TOFMS under measuring conditions for cationic metabolites and anionic metabolites. As a capillary, a fused silica capillary having an inner diameter of 50 μm, an outer diameter of 350 μm, and a total length of 100 cm was used. As a buffer, 1 M formic acid (pH is about 1.8) was used. Measurement was performed with an applied voltage of +30 kV and a capillary temperature of 20° C. A sample was injected at 50 mbar for 3 seconds using the pressure method. In TOFMS, the positive ion mode was employed and the ionization, fragmentor, skimmer, and Oct RFV voltages were set at 4 kV, 75 V, 50 V, and 125 V, respectively. Nitrogen was used as a drying gas, which was set at a temperature of 300° C. and a pressure of 10 psig. Methanol solution (50%) was used as a sheath liquid. To this solution, reserpine (m/z 609.2807) was added at 0.5 μM for mass calibration and the solution was delivered at 10μ/min. All the obtained data were automatically calibrated using the mass of reserpine (m/z 609.2807) and methanol adduct ion (m/z 83.0703). As a capillary, SMILE(+) capillary having an inner diameter of 50 μm, an outer diameter of 350 μm, and a total length of 100 cm was used. As a buffer, 50 mM ammonium acetate (pH 8.5) was used. Measurement was performed with an applied voltage of -30 kV and a capillary temperature of 20° C. A sample was injected at 50 mbar for 30 seconds using the pressure method. In TOFMS, the negative ion mode was employed and the ionization, fragmentor, skimmer, and Oct RFV voltage were set at 3.5 kV, 100 V, 50 V, and 200 V, respectively. Nitrogen was used as a drying gas, which was set at a temperature of 300° C. and a pressure of 10 psig. Ammonium acetate (5 mM) in 50% methanol solution was used as a sheath liquid. To this solution, 20 μM PIPES and 1 μM reserpine (m/z 609.2807) was added for mass calibration and was delivered at 10μ/min. […]

Where [2] appears, read: 2 hours after administration, vs control mice.
Setting [3] is: at 1 and 2 hours after administration (time course).
[4] abbreviates: time course 1-24 hours after administration.

Regarding `CCCCS(=N)(=O)CCC(N)C(=O)O` (stereo not drawn) [BSO, buthionine sulfoximine], in test [1] (setting [2]), the GSH in liver entry was “remarkably decreased”, the “ophthalmic acid in liver” value is “remarkably decreased”, the “γ-Glu-2-aminobutyric acid (γ-Glu-2AB) in liver” value was “remarkably decreased” and the γ-Glu-Cys in liver result is “remarkably decreased”.

Take `CC(=O)Nc1ccc(O)cc1` [AAP, Acetaminophen]: in test [1] (setting [2]), the GSH in liver entry is given as “Dramatically decreased”, the “all the substances in the glutathione biosynthesis pathway in the liver” value is on record as “decrease”, the “ophthalmic acid in liver” value is given as “increase” and the “oxidized glutathione (GSSG) in liver” value is recorded as “Dramatically decreased”. The “γ-Glu-2-aminobutyric acid (γ-Glu-2AB) in liver” value in test [1] (setting [2]) is recorded as “increase”. In test [1] (setting [3]), the GSH in liver entry was “rapidly decreased” and the “ophthalmic acid in liver” value is reported as “dramatically increased”. For the same compound, the GSSH in liver entry in test [1] (setting [4]) was “a behavior similar to that of GSH in liver”. For the same compound, the “ophthalmic acid in serum” value in the test on serum metabolites (setting [3]) is recorded as “dramatically increased”. In the test with serum metabolites (setting [4]), the GSH in serum result is “not detected” and the GSSH in serum result is listed as “a behavior similar to that of GSH in liver”.
